Here are results for 26 molecules from ChEMBL document CHEMBL1145739, “N-(3-phenylsulfonyl-3-piperidinoyl)-phenylalanine derivatives as potent, selective VLA-4 antagonists” (Bioorg Med Chem Lett, 2003).

The IC50 is the concentration that gives 50% inhibition. A low value points to inhibition by little substance. The inhibition is the drop in the measured response relative to a control, in per cent. The half-life is the time in which the quantity being followed falls by half. Read a high half-life as slow decline. Usually bioavailability stands for dose-corrected exposure relative to a reference, in per cent. Low readings indicate little systemic uptake, high ones much systemic uptake.

One series has as its target Integrin alpha-4/beta-1 (Homo sapiens, UniProt P05556+P13612). The series is described as follows: Binding affinity towards VLA-4 (alpha4 beta-1) receptor in human Jurkat cells using [125I]VCAM-Ig as radioligand. The series is classed as cell-based.
Series [1] addresses T1, Integrin alpha-4/beta-7 (Homo sapiens) (UniProt P13612+P26010). Kind of series: Percent inhibition of [125I]VCAM-Ig binding to human integrin alpha4-beta7 receptor of RPMI-8866 cells at 100 nM. Format: cell-based.
Series [2] has as its target T2, Integrin alpha-4/beta-7 (Homo sapiens, UniProt P13612+P26010).
T2 sequence (P13612 whole entry): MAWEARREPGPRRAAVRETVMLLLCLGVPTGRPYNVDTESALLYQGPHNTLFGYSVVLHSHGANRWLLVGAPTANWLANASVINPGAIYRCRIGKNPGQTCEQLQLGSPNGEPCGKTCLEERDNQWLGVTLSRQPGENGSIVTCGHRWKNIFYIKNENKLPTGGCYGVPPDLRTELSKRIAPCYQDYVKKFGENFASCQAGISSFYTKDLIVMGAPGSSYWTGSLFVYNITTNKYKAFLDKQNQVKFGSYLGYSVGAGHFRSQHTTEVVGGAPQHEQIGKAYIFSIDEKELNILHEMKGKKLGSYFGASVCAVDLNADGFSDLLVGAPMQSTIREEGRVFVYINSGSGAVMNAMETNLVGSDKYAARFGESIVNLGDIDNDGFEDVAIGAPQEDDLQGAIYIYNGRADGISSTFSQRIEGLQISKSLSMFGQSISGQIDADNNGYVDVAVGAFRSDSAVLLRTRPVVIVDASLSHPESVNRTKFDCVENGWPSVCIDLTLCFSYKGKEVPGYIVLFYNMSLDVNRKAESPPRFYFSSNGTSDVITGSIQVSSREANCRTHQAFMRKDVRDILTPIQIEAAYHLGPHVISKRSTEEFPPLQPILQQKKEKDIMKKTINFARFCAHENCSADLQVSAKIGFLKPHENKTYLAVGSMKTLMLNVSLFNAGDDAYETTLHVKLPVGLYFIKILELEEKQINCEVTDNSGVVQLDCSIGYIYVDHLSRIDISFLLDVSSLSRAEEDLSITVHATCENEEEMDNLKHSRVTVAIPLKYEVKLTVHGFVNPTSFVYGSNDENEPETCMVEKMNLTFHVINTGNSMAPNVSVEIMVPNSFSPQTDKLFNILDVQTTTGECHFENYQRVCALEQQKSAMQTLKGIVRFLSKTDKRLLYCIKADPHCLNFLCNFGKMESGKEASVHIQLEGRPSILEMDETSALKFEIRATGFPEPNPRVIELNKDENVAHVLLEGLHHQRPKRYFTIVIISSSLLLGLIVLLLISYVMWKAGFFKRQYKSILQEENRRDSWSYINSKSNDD
T2 sequence (P26010 whole entry): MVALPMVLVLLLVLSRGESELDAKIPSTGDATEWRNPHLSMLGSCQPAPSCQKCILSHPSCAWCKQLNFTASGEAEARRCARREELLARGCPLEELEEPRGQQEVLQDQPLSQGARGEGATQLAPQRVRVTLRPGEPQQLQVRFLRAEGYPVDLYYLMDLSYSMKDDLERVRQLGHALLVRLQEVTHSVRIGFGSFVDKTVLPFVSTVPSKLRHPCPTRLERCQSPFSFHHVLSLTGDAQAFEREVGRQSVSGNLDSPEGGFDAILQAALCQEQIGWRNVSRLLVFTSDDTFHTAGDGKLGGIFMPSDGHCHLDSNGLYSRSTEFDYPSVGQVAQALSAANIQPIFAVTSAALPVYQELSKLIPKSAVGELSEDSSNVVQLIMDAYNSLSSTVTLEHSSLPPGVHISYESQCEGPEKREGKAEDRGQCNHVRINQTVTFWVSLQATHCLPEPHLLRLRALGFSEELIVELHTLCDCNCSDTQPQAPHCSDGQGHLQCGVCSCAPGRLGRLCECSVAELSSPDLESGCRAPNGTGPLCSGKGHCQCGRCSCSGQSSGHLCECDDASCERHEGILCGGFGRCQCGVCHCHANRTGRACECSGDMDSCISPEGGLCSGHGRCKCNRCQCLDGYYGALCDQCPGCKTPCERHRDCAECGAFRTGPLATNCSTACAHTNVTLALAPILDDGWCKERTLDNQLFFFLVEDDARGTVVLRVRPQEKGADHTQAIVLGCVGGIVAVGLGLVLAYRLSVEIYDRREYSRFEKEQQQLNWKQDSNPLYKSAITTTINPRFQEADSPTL
Kind of series: Inhibition of [125I]-VCAM-Ig binding to human integrin alpha4-beta7 receptor in RPMI-8866 cells. Format: cell-based.

A short description of series [3]: Half life time was evaluated at 1 mg/kg of iv administration in Sprague-Dawley rats. The series is classed as ADME, organism-based. To be noted: rat, in vivo. Set-up: dose 1 mg/kg, route intravenous.
In series [4] the target is T2, Integrin alpha-4/beta-7. The series is described as follows: Binding affinity towards […] receptor in human RPMI-8866 B-cell line using [125I]MAdCAM-Ig as radioligand.
A short description of series [5]: Oral bioavailability in rat (Sprague-Dawley) (dose 2 mg/kg). Format: ADME, organism-based. To be noted: in vivo.
Series [6] in a line: Plasma clearance was evaluated at 1 mg/kg of iv administration in Sprague-Dawley rats. Set-up: dose 1 mg/kg, route intravenous. Format: ADME, organism-based. Particulars: rat, read-out: Clp.
For series [7], the target named is T1, Integrin alpha-4/beta-7 (Homo sapiens). The series is described as follows: Percent inhibition of [125I]MAdCAM-Ig binding to human integrin alpha4-beta7 receptor of RPMI-8866 cells at 100 nM. Format: cell-based.

Integrin alpha-4/beta-1, sequence (P05556 whole entry, one chain of several): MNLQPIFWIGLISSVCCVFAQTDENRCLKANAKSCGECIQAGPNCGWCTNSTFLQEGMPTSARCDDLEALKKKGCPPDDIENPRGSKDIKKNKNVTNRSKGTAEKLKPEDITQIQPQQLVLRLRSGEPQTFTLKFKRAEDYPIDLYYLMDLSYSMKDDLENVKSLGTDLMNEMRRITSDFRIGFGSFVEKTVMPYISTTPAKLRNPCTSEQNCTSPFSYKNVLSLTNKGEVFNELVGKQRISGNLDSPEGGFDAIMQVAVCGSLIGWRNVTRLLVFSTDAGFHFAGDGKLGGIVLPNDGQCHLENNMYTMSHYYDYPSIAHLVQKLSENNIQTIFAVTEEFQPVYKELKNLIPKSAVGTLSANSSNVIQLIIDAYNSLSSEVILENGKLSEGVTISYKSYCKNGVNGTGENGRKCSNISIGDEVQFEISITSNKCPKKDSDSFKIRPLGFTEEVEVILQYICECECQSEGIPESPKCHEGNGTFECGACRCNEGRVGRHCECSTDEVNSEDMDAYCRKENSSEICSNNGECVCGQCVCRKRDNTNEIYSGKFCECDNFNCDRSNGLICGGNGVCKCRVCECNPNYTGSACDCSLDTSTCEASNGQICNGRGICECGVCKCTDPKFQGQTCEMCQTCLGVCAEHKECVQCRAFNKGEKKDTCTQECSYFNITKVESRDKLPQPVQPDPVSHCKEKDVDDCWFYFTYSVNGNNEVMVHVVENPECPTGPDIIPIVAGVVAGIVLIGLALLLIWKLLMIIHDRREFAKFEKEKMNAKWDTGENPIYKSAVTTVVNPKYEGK

Molecule `O=C(O)[C@H](Cc1ccc(-c2ccccc2)cc1)NC(=O)C1(S(=O)(=O)c2cccc3ccccc23)CCCC1` returned an IC50 at Integrin alpha-4/beta-1 of 735 nM. Further, in series [1], the inhibition was found to be 7%.
Regarding `COc1ccccc1-c1ccc(C[C@H](NC(=O)C2(S(=O)(=O)c3ccc(F)cc3)CCCCC2)C(=O)O)cc1`, the IC50 on Integrin alpha-4/beta-7 [2] came out at 25 nM; on Integrin alpha-4/beta-1 it was 0.75 nM.
As to `COc1ccccc1-c1ccc(C[C@H](NC(=O)C2(S(=O)(=O)C3CCCCC3)CCCC2)C(=O)O)cc1`, the IC50 at Integrin alpha-4/beta-7 [2] stood at 52 nM; at Integrin alpha-4/beta-1, 1.1 nM.
`COc1cccc(OC)c1-c1ccc(C[C@H](NC(=O)C2(S(=O)(=O)c3ccccc3)CCCNC2)C(=O)O)cc1` (some centres undefined) gave a half-life in series [3] of 30 min. In addition, the values for the IC50 on Integrin alpha-4/beta-7 [4] and on Integrin alpha-4/beta-1 were 168 nM and 0.09 nM, respectively. The molecule also gave a bioavailability in series [5] of 1%. Also, the clearance in series [6] was 46 mL/min/kg.
The molecule `O=C(O)[C@H](Cc1ccc(-c2ccccc2)cc1)NC(=O)C1(S(=O)(=O)c2ccccc2Br)CCCCC1` displayed an IC50 on Integrin alpha-4/beta-1 of 45 nM. Moreover, the inhibition in series [1] was found to be 13%.
For `COc1cccc(OC)c1-c1ccc(C[C@H](NC(=O)C2(S(=O)(=O)c3ccccc3)CCOCC2)C(=O)O)cc1`, in series [3], the half-life is 48 min. Also, the IC50 at Integrin alpha-4/beta-7 [4] came out at 38 nM; at Integrin alpha-4/beta-1, 0.16 nM. The molecule further came in with a bioavailability in series [5] of 3%. Also, the clearance in series [6] was 133 mL/min/kg.
In turn, `Cc1ccc(S(=O)(=O)C2(C(=O)N[C@@H](Cc3ccc(-c4ccccc4)cc3)C(=O)O)CCCCC2)cc1` gave an IC50 on Integrin alpha-4/beta-1 of 53 nM. Further, the inhibition in series [1] worked out at 0%.
Regarding `COc1ccccc1-c1ccc(C[C@H](NC(=O)C2(S(=O)(=O)c3ccc(C)cc3)CCCCC2)C(=O)O)cc1`, the values for the IC50 at Integrin alpha-4/beta-7 [2] and on Integrin alpha-4/beta-1 were 91 nM and 1.5 nM, respectively.
Consider `O=C(O)[C@H](Cc1ccc(-c2ccccc2)cc1)NC(=O)C1(S(=O)(=O)C2CCCCC2)CCCC1`, for which the IC50 on Integrin alpha-4/beta-1 came out at 7 nM. For the same molecule, in series [1], the inhibition was 16%.
As to `COc1ccccc1-c1ccc(C[C@H](NC(=O)C2(S(=O)(=O)c3nccn3C)CCCC2)C(=O)O)cc1`, the IC50 is 4 nM at Integrin alpha-4/beta-7 [2] and 0.21 nM on Integrin alpha-4/beta-1.
Consider `O=C(O)[C@H](Cc1ccc(-c2ccccc2)cc1)NC(=O)C1(S(=O)(=O)c2ccc(Br)cc2)CCCC1`, for which the IC50 on Integrin alpha-4/beta-1 came to 23 nM. Besides, in series [1], the inhibition is 20%.
For the molecule `Cc1ccc(S(=O)(=O)C2(C(=O)N[C@@H](Cc3ccc(-c4ccccc4)cc3)C(=O)O)CCCC2)cc1`, at Integrin alpha-4/beta-1, the IC50 is 28 nM. Besides, the inhibition in series [1] came out at 2%.
Consider `COc1ccccc1-c1ccc(C[C@H](NC(=O)C2(S(=O)(=O)c3ccccc3)CCCC2)C(=O)O)cc1`, for which the IC50 worked out at 83 nM on Integrin alpha-4/beta-7 [2] and 0.33 nM at Integrin alpha-4/beta-1.
With `COc1ccccc1-c1ccc(C[C@H](NC(=O)C2(S(=O)(=O)c3ccc(Cl)cc3)CCCCC2)C(=O)O)cc1`, the IC50 on Integrin alpha-4/beta-7 [2] was 53 nM; at Integrin alpha-4/beta-1 it was 1.1 nM.
For the molecule `O=C(O)[C@H](Cc1ccc(-c2ccccc2)cc1)NC(=O)C1(S(=O)(=O)Cc2ccccc2)CCCCC1`, the IC50 at Integrin alpha-4/beta-1 was 65 nM. Moreover, the inhibition in series [1] is 14%.
On to `O=C(Nc1ccc(C[C@H](NC(=O)C2(S(=O)(=O)c3ccccc3)CCOCC2)C(=O)O)cc1)c1c(Cl)cccc1Cl`, for which the half-life in series [3] is 36 min. For the same molecule, the IC50 on Integrin alpha-4/beta-7 [4] came out at 20 nM; at Integrin alpha-4/beta-1 it was 0.22 nM. Also, in series [5], the bioavailability came to 1%. Also, the clearance in series [6] came out at 48 mL/min/kg.
With `O=C(O)[C@H](Cc1ccc(-c2ccccc2)cc1)NC(=O)C1(S(=O)(=O)c2ccccc2Br)CCCC1`, the IC50 on Integrin alpha-4/beta-1 amounted to 105 nM. Also, the inhibition in series [1] came to 8%.
Take `O=C(O)[C@H](Cc1ccc(-c2ccccc2)cc1)NC(=O)C1(S(=O)(=O)C2CCCCC2)CCCCC1`: the IC50 at Integrin alpha-4/beta-1 came to 14 nM. Also, the inhibition in series [1] was 24%.
On to `O=C(O)[C@H](Cc1ccc(-c2ccccc2)cc1)NC(=O)C1(S(=O)(=O)c2ccccc2)CC=CC1`, for which, in series [7], the inhibition was found to be 7%. At Integrin alpha-4/beta-1, this molecule displayed an IC50 of 275 nM.
Molecule `O=C(Nc1ccc(C[C@H](NC(=O)C2(S(=O)(=O)c3ccccc3)CCCNC2)C(=O)O)cc1)c1c(Cl)cccc1Cl` (some centres undefined) gave a half-life in series [3] of 18 min. For the same molecule, the figures for the IC50 on Integrin alpha-4/beta-7 [4] and at Integrin alpha-4/beta-1 were 22 nM and 0.19 nM, respectively. This molecule also came in with a bioavailability in series [5] of 0%. For the same molecule, in series [6], the clearance is 78 mL/min/kg.
Molecule `O=C(O)[C@H](Cc1ccc(-c2ccccc2)cc1)NC(=O)C1(S(=O)(=O)c2ccc(Br)cc2)CCCCC1` showed an IC50 on Integrin alpha-4/beta-1 of 44 nM. The inhibition in series [1] turned out to be 19%.
With `COc1ccccc1-c1ccc(C[C@H](NC(=O)C2(S(=O)(=O)c3ccccc3C)CCCCC2)C(=O)O)cc1`, the IC50 amounted to 149 nM at Integrin alpha-4/beta-7 [2] and 2.7 nM on Integrin alpha-4/beta-1.
Regarding `COc1ccccc1-c1ccc(C[C@H](NC(=O)C2(S(=O)(=O)c3cccc(C)c3)CCCCC2)C(=O)O)cc1`, the results for the half-maximal inhibitory concentration (IC50) on Integrin alpha-4/beta-7 [2] and on Integrin alpha-4/beta-1 were 77 nM and 1 nM, respectively.
`O=C(O)[C@H](Cc1ccc(-c2ccccc2)cc1)NC(=O)C1(S(=O)(=O)c2ccccc2)CCCC1`: the IC50 on Integrin alpha-4/beta-1 amounted to 28 nM. Besides, the inhibition in series [1] was found to be 18%.
Take `COc1ccccc1-c1ccc(C[C@H](NC(=O)C2(S(=O)(=O)C(C)(C)C)CCCC2)C(=O)O)cc1`: the IC50 at Integrin alpha-4/beta-7 [2] worked out at 19 nM; on Integrin alpha-4/beta-1 it was 0.47 nM.
Molecule `O=C(O)[C@H](Cc1ccc(-c2ccccc2)cc1)NC(=O)C1(S(=O)(=O)Cc2ccccc2)CCCC1` had an IC50 at Integrin alpha-4/beta-1 of 81 nM. Moreover, the inhibition in series [1] was -7%.
